# Measurements reported in US7803930B2, “Antisense modulation of apolipoprotein B-expression” (Isis Pharmaceuticals, Inc., priority 2002, dated 2010).
# In the oligonucleotide strings, read from the 5' end, every base follows the letter of its sugar. An asterisk marks phosphorothioate; unmarked linkages are phosphodiester. Other units and linkages are bracketed, terminal groups are in braces. A string of capitals states the bases alone. e = 2'-O-(2-methoxyethyl) (MOE); [5mC] = 5-methylcytosine; d = 2'-deoxy (DNA)
# Tests used:
# [1] = Toxicity in C57BL/6 mice, two weeks (Example 48): liver enzyme levels, body, liver and spleen weight; type: in vivo, mouse; parameters: Weight BODY / Weight LIVER / Weight SPLEEN: unit not given here; conditions: 25 mg/kg i.p. twice a week
# Experimental: C57BL/6 mice were divided into two groups—one group receiving oligonucleotide treatment and control animals receiving saline treatment. After overnight fasting, mice were dosed intraperitoneally twice a week with saline or 25 mg/kg of one of several oligonucleotides for two weeks. The antisense oligonucleotides used in the present study were ISIS 233172 (SEQ ID NO: 835) and ISIS 233175 (SEQ ID NO: 838), both targeted to rabbit apolipoprotein B, and ISIS 281625 (SEQ ID NO: 224), ISIS 301012 (SEQ ID NO: 247), and ISIS 301027 (SEQ ID NO: 262), targeted to human apolipoprotein B. At study termination and forty eight hours after the final injections, animals were sacrificed and evaluated for liver enzyme levels, body weight, liver weight, and spleen weight.
# [2] = system: rabbit apolipoprotein B mRNA; assay: Inhibition of rabbit apolipoprotein B mRNA levels in primary rabbit hepatocytes, real-time PCR; type: cell-based; parameters: % INHIB of rabbit apolipoprotein B mRNA levels: concentration or dose not given beside the values; conditions: for Percent Inhibition of rabbit apolipoprotein B mRNA levels: averages from two experiments
# Text: Primary rabbit hepatocytes were purchased from Invitro Technologies (Gaithersburg, Md.) and maintained in Dulbecco's modified Eagle's medium (Gibco). When purchased, the cells had been seeded into 96-well plates for use in RT-PCR analysis and were confluent.
# In accordance with the present invention, a series of oligonucleotides was designed to target different regions of rabbit apolipoprotein B, using published sequences (GenBank accession number X07480.1, incorporated herein as SEQ ID NO: 808, GenBank accession number M17780.1, incorporated herein as SEQ ID NO: 809, and a sequence was derived using previously described primers (Tanaka, Journ. Biol. Chem., 1993,268, 12713-12718) representing an mRNA of the rabbit apolipoprotein B, incorporated herein as SEQ ID NO: 810). “Target site” indicates the first (5′-most) nucleotide number on the particular target sequence to which the oligonucleotide binds. All compounds in Table 21 are chimeric oligonucleotides (“gapmers”) 20 nucleotides in length, composed of a central “gap” region consisting of ten 2′-deoxynucleotides, which is flanked on both sides (5′ and 3′ directions) by five-nucleotide “wings”. The wings are composed of 2′-methoxyethyl (2′-MOE)nucleotides. The internucleoside (backbone) linkages are phosphorothioate (P═S) throughout the oligonucleotide. All cytidine residues are 5-methylcytidines. The compounds were analyzed for their effect on rabbit apolipoprotein B mRNA levels in primary rabbit hepatocytes by quantitative real-time PCR as described in other examples herein. Primary rabbit hepatocytes were treated with 150 nM of the compounds in Table 21. For rabbit apolipoprotein B the PCR primers were: • forward primer: AAGCACCCCCAATGTCACC (SEQ ID NO: 811) • reverse primer: […] (SEQ ID NO: 812) and the PCR probe was: FAM-[…]-TAMRA (SEQ ID NO: 813) where FAM (PE-Applied Biosystems, Foster City, Calif.) is the fluorescent reporter dye) and TAMRA (PE-Applied Biosystems, Foster City, Calif.) is the quencher dye. Data are averages from two experiments. If present, “N.D.” indicates “no data”.
# In accordance with the present invention, a subset of the antisense oligonuclotides in Example 42 was further investigated in dose-response studies. Treatment doses were 10, 50, 150 and 300 nM. ISIS 233160 (SEQ ID NO: 824), ISIS 233166 (SEQ ID NO: 830), ISIS 233172 (SEQ ID NO: 835), ISIS 233175 (SEQ ID NO: 838), and ISIS 233183 (SEQ ID NO: 846) were analyzed for their effect on rabbit apolipoprotein B mRNA levels in primary rabbit hepatocytes by quantitative real-time PCR as described in other examples herein.
# [3] = system: apolipoprotein B protein; assay: Apolipoprotein B protein secreted from primary Cynomolgous monkey hepatocytes, ELISA; type: cell-based; conditions: for % Reduction of monkey apolipoprotein B protein secretion / secretion of apolipoprotein B protein (ELISA): primary Cynomolgous hepatocytes; for % Reduction in secreted apolipoprotein B protein: primary Cynomolgous monkey hepatocytes
# Experimental: Apolipoprotein B protein secreted from primary Cynomolgous hepatocytes treated with 150 and 300 nM of oligonucleotide was measured by ELISA using an apolipoprotein B protein specific kit (ALerCHEK Inc., Portland, Me.). Each result represents the average of 3 experiments.
# Apolipoprotein B protein secreted primary Cynomolgous hepatocytes treated with 50 and 150 nM of ISIS 315089 and ISIS 281625 was measured by ELISA using an apolipoprotein B protein specific kit (ALerCHEK Inc., Portland, Me.). Each result represents the average of 3 experiments.
# Apolipoprotein B protein secreted from primary Cynomolgous hepatocytes treated with 50 and 150 nM of ISIS 271009 and ISIS 301027 was measured by ELISA using an apolipoprotein B protein specific kit (ALerCHEK Inc., Portland, Me.). Each result represents the average of 3 experiments.
# [4] = system: Cynomolgous monkey apolipoprotein B mRNA; assay: Apolipoprotein B mRNA in primary Cynomolgous monkey hepatocytes, real-time PCR; type: cell-based; conditions: for % Inhibition of apolipoprotein B mRNA: primary Cynomolgous monkey hepatocytes
# Experimental: Antisense inhibition by ISIS 301012 was compared to that of ISIS 326358, which is a perfect match to the Cynomolgous monkey apolipoprotein B sequence to which ISIS 301012 hybridizes. The compounds were analyzed for their effect on Cynomolgous monkey apolipoprotein B mRNA levels in primary Cynomolgous monkey hepatocytes purchased from In Vitro Technologies ([…].). Pre-plated primary Cynonomolgous monkey hepatocytes were purchased from InVitro Technologies (Baltimore, Md.). Cells were cultured in high-glucose DMEM (Invitrogen Corporation, Carlsbad, Calif.) supplemented with 10% fetal bovine serum (Invitrogen Corporation, Carlsbad, Calif.), 100 units/mL and 100 μg/mL streptomycin (Invitrogen Corporation, Carlsbad, Calif.).
# Primary Cynomolgous monkey hepatocytes were treated with 10, 50, 150 or 300 nM of antisense oligonucleotides for 48 hours. ISIS 113529 (SEQ ID NO: 859) was used as a control oligonucleotide. Untreated cells also served as a control. Cynomolgous monkey apolipoprotein B mRNA levels were quantitated by real-time PCR using the human apolipoprotein B and GAPDH primers and probes described by other examples herein. The results, shown in Table 44, are the average of 6 experiments and are expressed as percent inhibition of apolipoprotein B mRNA normalized to untreated control cells.
# In a further embodiment of the invention, antisense inhibition by ISIS 281625 was compared to that by ISIS 315089, which is a perfect match to the Cynomolgous monkey apolipoprotein B sequence to which ISIS 281625 hybridizes. Primary Cynomolgous monkey hepatocytes, cultured as described herein, were treated with 10, 50, 150 or 300 nM of ISIS 315089 or ISIS 281625 for 24 hours. Cells were treated with the control oligonucleotide ISIS 13650 (SEQ ID NO: 806) at 150 and 300 nM or ISIS 113529 (SEQ ID NO: 859) at 300 nM. Untreated cells also served as a control. Cynomolgous monkey apolipoprotein B mRNA levels in primary Cynomolgous monkey hepatocytes was quantitated using real-time PCR with human primers and probe as described by other examples herein. The results, shown in Table 46, are the average of 3 experiments and are expressed as percent inhibition of apolipoprotein B mRNA normalized to untreated control cells.
# ISIS 271009 (SEQ ID NO: 319) and ISIS 301027 (SEQ ID NO: 262) were also tested for their effects on apolipoprotein B mRNA and protein expression in Cynomolgous primary hepatoctyes. Cells, cultured as described herein, were treated with 10, 50 and 150 nM of ISIS 271009 or ISIS 301027 for 24 hours. Cells were treated with the control oligonucleotide ISIS 113529 (SEQ ID NO: 859) at 150 nM. Untreated cells also served as a control. Cynomolgous monkey apolipoprotein B mRNA levels in primary Cynomolgous monkey hepatocytes was quantitated using real-time PCR with human primers and probe as described by other examples herein. The results, shown in Table 48, are the average of 2 experiments and are expressed as percent inhibition of apolipoprotein B mRNA normalized to untreated control cells.
substance,measurement,setting,value
233172 (antisense eA*eT*eG*eG*eA*dA*dG*dA*d[5mC]*dT*dG*dG*d[5mC]*dA*dG*e[5mC]*eT*e[5mC]*eT*eA) [compound 233172],Liver Enzymes ALT,[1],43.3 IU/L
same,Liver Enzymes AST,[1],94.3 IU/L
same,Weight BODY,[1],21.3
same,Weight LIVER,[1],1.3
same,Weight SPLEEN,[1],0.1
same,% INHIB of rabbit apolipoprotein B mRNA levels,[2],86%
same,Percent Inhibition of rabbit apolipoprotein B mRNA levels,[2]; 10 nM,60%
same,Percent Inhibition of rabbit apolipoprotein B mRNA levels,[2]; 50 nM,76%
same,Percent Inhibition of rabbit apolipoprotein B mRNA levels,[2]; 150 nM,81%
same,Percent Inhibition of rabbit apolipoprotein B mRNA levels,[2]; 300 nM,84%
233175 (antisense eG*eA*e[5mC]*e[5mC]*eT*dT*dG*dA*dG*dT*dA*dG*dA*dT*dT*e[5mC]*e[5mC]*eT*eG*eG) [compound 233175],Liver Enzymes ALT,[1],230.2 IU/L
same,Liver Enzymes AST,[1],346.7 IU/L
same,Weight BODY,[1],21.5
same,Weight LIVER,[1],1.4
same,Weight SPLEEN,[1],0.1
same,% INHIB of rabbit apolipoprotein B mRNA levels,[2],90%
same,Percent Inhibition of rabbit apolipoprotein B mRNA levels,[2]; 10 nM,67%
same,Percent Inhibition of rabbit apolipoprotein B mRNA levels,[2]; 50 nM,85%
same,Percent Inhibition of rabbit apolipoprotein B mRNA levels,[2]; 150 nM,90%
same,Percent Inhibition of rabbit apolipoprotein B mRNA levels,[2]; 300 nM,93%
315089 (antisense eA*eG*eA*eT*eT*dA*d[5mC]*d[5mC]*dA*dG*d[5mC]*d[5mC]*dA*dT*dA*eT*eG*e[5mC]*eA*eG) [compound 315089],% Reduction of monkey apolipoprotein B protein secretion,[3]; 50 nM (Table 47),11%
same,% Reduction of monkey apolipoprotein B protein secretion,[3]; 150 nM (Table 47),25%
same,% Inhibition of apolipoprotein B mRNA,"[4]; 10 nM, 24 hours (Table 46), ""+"" = expression increased",70%
same,% Inhibition of apolipoprotein B mRNA,"[4]; 50 nM, 24 hours (Table 46)",83%
same,% Inhibition of apolipoprotein B mRNA,"[4]; 150 nM, 24 hours (Table 46), ""+"" = expression increased",81%
same,% Inhibition of apolipoprotein B mRNA,"[4]; 300 nM, 24 hours (Table 46)",82%
326358 (antisense eG*e[5mC]*e[5mC]*eT*e[5mC]*dA*dG*dT*d[5mC]*dT*dG*d[5mC]*dT*dT*dT*eA*e[5mC]*eA*e[5mC]*e[5mC]) [compound 326358],% Reduction in secreted apolipoprotein B protein,"[3]; 150 nM, 24 hours",21%
same,% Reduction in secreted apolipoprotein B protein,"[3]; 150 nM, 48 hours",29%
same,% Reduction in secreted apolipoprotein B protein,"[3]; 300 nM, 24 hours",17%
same,% Reduction in secreted apolipoprotein B protein,"[3]; 300 nM, 48 hours",35%
same,% Inhibition of apolipoprotein B mRNA,"[4]; 10 nM, 24 hours",35%
same,% Inhibition of apolipoprotein B mRNA,"[4]; 10 nM, 48 hours",85%
same,% Inhibition of apolipoprotein B mRNA,"[4]; 50 nM, 24 hours",66%
same,% Inhibition of apolipoprotein B mRNA,"[4]; 50 nM, 48 hours",88%
same,% Inhibition of apolipoprotein B mRNA,"[4]; 150 nM, 24 hours",61%
same,% Inhibition of apolipoprotein B mRNA,"[4]; 150 nM, 48 hours",82%
same,% Inhibition of apolipoprotein B mRNA,"[4]; 300 nM, 24 hours",64%
same,% Inhibition of apolipoprotein B mRNA,"[4]; 300 nM, 48 hours",87%
"AGATTACCAGCCATATGCAG (gapmer: ten 2'-deoxy gap, five-nucleotide wings, wing chemistry not given here) [ISIS 315089]",secretion of apolipoprotein B protein (ELISA),[3]; 150 nM,decrease
same,secretion of apolipoprotein B protein (ELISA),[3]; 50 and 150 nM (statement after Table 49),decrease
same,inhibition of apolipoprotein B mRNA expression,"[4]; Cynomolgous monkey primary hepatocytes, 10, 50, 150 or 300 nM, 24 hours",in a dose-dependent manner
"ISIS 233175: SEQ ID NO: 838, targeted to rabbit apolipoprotein B (antisense eG*eA*e[5mC]*e[5mC]*eT*dT*dG*dA*dG*dT*dA*dG*dA*dT*dT*e[5mC]*e[5mC]*eT*eG*eG)",levels of liver enzymes relative to saline treatment,[1],drastically increased
